Data reported in ChEMBL document CHEMBL1130399 (J Med Chem, 1997).

How the values were obtained:
Mus musculus [1] = species on record: Mus musculus; assay: Maximal degree of inhibition of electrically evoked contractions in a mouse vas deferens assay; type: functional
Mus musculus [2] = species on record: Mus musculus; assay: Effective concentration that causes twitch inhibition in a mouse vas deferens assay; type: functional, organism-based
Cannabinoid receptor [3] = molecular target: T1, Cannabinoid receptor (Rattus norvegicus, UniProt Q9QZN9+P20272); assay: Binding affinity towards cannabinoid receptor using [3H]CP-55940 as radioligand in rat brain membrane; type: cell membranes
Cannabinoid receptor [4] = molecular target: T1, Cannabinoid receptor; assay: Binding affinity towards cannabinoid receptor using [3H]SR-141,716A as radioligand in rat brain membrane; type: cell membranes
Mus musculus [5] = species on record: Mus musculus; assay: Inhibition of tail flick response[…] in mice was determined; type: functional
Mus musculus [6] = species on record: Mus musculus; assay: Inhibition of spontaneous activity(SA) in mice was determined; type: functional
Mus musculus [7] = species on record: Mus musculus; assay: Hypothermia measured as changes in rectal temperature (RT)
Mus musculus [8] = species on record: Mus musculus; assay: Maximum possible effect for ring immobility (RI); type: functional
Mus musculus [9] = species on record: Mus musculus; assay: Maximum possible effect for inhibition of spontaneous activity (SA); type: functional
Mus musculus [10] = species on record: Mus musculus; assay: Maximum possible effect for antinociception as measured by the tail flick response (TF); type: functional
Mus musculus [11] = species on record: Mus musculus; assay: Inhibition of ring immobility(RI) in mice was determined; type: functional
Mus musculus [12] = species on record: Mus musculus; assay: Inhibition of rectal temperature(RT) in mice was determined; type: functional

CCCCC/C=C\C/C=C\C/C=C\C/C=C\CCCC(=O)NCCC gave an Emax (Mus musculus [1]) of 51.2%, an EC50 (Mus musculus [2]) of 0.0109 µM and a Ki (Cannabinoid receptor [3]) of 0.0026 µM. It also gave a Ki (Cannabinoid receptor [4]) of 0.238 µM.
For CCCCCCC(C)(C)/C=C\C/C=C\C/C=C\C/C=C\CCCC(=O)NCCC, the ED50 (Mus musculus [5]) was 6.3 mg/kg, the Emax (Mus musculus [1]) was 65.3% and the EC50 (Mus musculus [2]) was 0.0117 µM. The ED50 (Mus musculus [6]) was 1.2 mg/kg, the rectal temperature change (Mus musculus [7]) was -1.5 °C and the Ki (Cannabinoid receptor [3]) was 0.0015 µM. For the same compound, the MPE (Mus musculus [8]) was 81% and the Ki (Cannabinoid receptor [4]) was 0.031 µM.
Work on CCCCCCC(C)(C)/C=C\C/C=C\C/C=C\C/C=C\CCCC(=O)NCCOC yielded an ED50 (Mus musculus [5]) of 13.3 mg/kg, an Emax (Mus musculus [1]) of 44.6% and an EC50 (Mus musculus [2]) of 0.036 µM. The MPE (Mus musculus [9]) was 98%, the MPE (Mus musculus [10]) was 100% and the ED50 (Mus musculus [11]) was 5.7 mg/kg. It also gave an ED50 (Mus musculus [6]) of 4 mg/kg, a rectal temperature change (Mus musculus [7]) of -1.5 °C and a Ki (Cannabinoid receptor [3]) of 0.0039 µM. For the same compound, the MPE (Mus musculus [8]) was 86% and the Ki (Cannabinoid receptor [4]) was 0.054 µM.
With CCCCCCC(C)(C)/C=C\C/C=C\C/C=C\C/C=C\CCCC(=O)N[C@H](C)CO the ED50 (Mus musculus [12]) was 6 mg/kg, the ED50 (Mus musculus [5]) was 1 mg/kg and the Emax (Mus musculus [1]) was 65.2%. For the same compound, the EC50 (Mus musculus [2]) was 0.0606 µM, the MPE (Mus musculus [9]) was 95% and the MPE (Mus musculus [10]) was 100%. For the same compound, the ED50 (Mus musculus [11]) was 2.4 mg/kg, the ED50 (Mus musculus [6]) was 1.1 mg/kg and the rectal temperature change (Mus musculus [7]) was -2.8 °C. It also gave a Ki (Cannabinoid receptor [3]) of 0.0017 µM, an MPE (Mus musculus [8]) of 85% and a Ki (Cannabinoid receptor [4]) of 0.22 µM.
Compound CCCCCCC(C)(C)/C=C\C/C=C\C/C=C\C/C=C\CCCC(=O)NCCO has an ED50 (Mus musculus [12]) of 2.9 mg/kg, an ED50 (Mus musculus [5]) of 1.7 mg/kg and an Emax (Mus musculus [1]) of 68.3%. It also gave an EC50 (Mus musculus [2]) of 0.0597 µM, an MPE (Mus musculus [9]) of 90% and an MPE (Mus musculus [10]) of 91%. The ED50 (Mus musculus [11]) was 1 mg/kg, the ED50 (Mus musculus [6]) was 1.5 mg/kg and the rectal temperature change (Mus musculus [7]) was -3.5 °C. It also gave a Ki (Cannabinoid receptor [3]) of 0.0019 µM, an MPE (Mus musculus [8]) of 74% and a Ki (Cannabinoid receptor [4]) of 0.153 µM.
For CCCCC/C=C\C/C=C\C/C=C\C/C=C\CCCC(=O)N[C@H](C)CO [METHANANDAMIDE], the Emax (Mus musculus [1]) was 100% and the EC50 (Mus musculus [2]) was 0.0101 µM.
CCCCC/C=C\C/C=C\C/C=C\C/C=C\CCCC(=O)NC[C@H](C)O gave an Emax (Mus musculus [1]) of 71.7%, an EC50 (Mus musculus [2]) of 0.0361 µM and a Ki (Cannabinoid receptor [3]) of 0.057 µM.
CCCCC/C=C\C/C=C\C/C=C\C/C=C\CCCC(=O)NCCO [ANANDAMIDE] gave an ED50 (Mus musculus [5]) of 6.2 mg/kg, an Emax (Mus musculus [1]) of 100% and an EC50 (Mus musculus [2]) of 0.0527 µM.
CCCCCCC(C)(C)/C=C\C/C=C\C/C=C\C/C=C\CCCC(=O)N[C@@H](C)CO gave an ED50 (Mus musculus [12]) of 5 mg/kg, an ED50 (Mus musculus [5]) of 4.8 mg/kg and an Emax (Mus musculus [1]) of 67.2%. The EC50 (Mus musculus [2]) was 0.0283 µM, the MPE (Mus musculus [9]) was 90% and the MPE (Mus musculus [10]) was 100%. For the same compound, the ED50 (Mus musculus [11]) was 2.5 mg/kg, the ED50 (Mus musculus [6]) was 2.6 mg/kg and the rectal temperature change (Mus musculus [7]) was -2 °C. For the same compound, the Ki (Cannabinoid receptor [3]) was 0.005 µM, the MPE (Mus musculus [8]) was 80% and the Ki (Cannabinoid receptor [4]) was 0.161 µM.
CCCCC/C=C\C/C=C\C/C=C\C/C=C\CCCC(=O)NCCOC was tested, and the Emax (Mus musculus [1]) was 34%, the EC50 (Mus musculus [2]) was 0.003 µM and the Ki (Cannabinoid receptor [3]) was 0.044 µM. It also gave a Ki (Cannabinoid receptor [4]) of 0.466 µM.
